# Results: BindingDB's records for doi:10.1124/jpet.105.084830 (University of Tokyo, 2005)
# Columns and labels:
# [1] = target: T1, Bile salt export pump (Rattus norvegicus, UniProt O70127)
# T1 sequence (O70127 whole entry): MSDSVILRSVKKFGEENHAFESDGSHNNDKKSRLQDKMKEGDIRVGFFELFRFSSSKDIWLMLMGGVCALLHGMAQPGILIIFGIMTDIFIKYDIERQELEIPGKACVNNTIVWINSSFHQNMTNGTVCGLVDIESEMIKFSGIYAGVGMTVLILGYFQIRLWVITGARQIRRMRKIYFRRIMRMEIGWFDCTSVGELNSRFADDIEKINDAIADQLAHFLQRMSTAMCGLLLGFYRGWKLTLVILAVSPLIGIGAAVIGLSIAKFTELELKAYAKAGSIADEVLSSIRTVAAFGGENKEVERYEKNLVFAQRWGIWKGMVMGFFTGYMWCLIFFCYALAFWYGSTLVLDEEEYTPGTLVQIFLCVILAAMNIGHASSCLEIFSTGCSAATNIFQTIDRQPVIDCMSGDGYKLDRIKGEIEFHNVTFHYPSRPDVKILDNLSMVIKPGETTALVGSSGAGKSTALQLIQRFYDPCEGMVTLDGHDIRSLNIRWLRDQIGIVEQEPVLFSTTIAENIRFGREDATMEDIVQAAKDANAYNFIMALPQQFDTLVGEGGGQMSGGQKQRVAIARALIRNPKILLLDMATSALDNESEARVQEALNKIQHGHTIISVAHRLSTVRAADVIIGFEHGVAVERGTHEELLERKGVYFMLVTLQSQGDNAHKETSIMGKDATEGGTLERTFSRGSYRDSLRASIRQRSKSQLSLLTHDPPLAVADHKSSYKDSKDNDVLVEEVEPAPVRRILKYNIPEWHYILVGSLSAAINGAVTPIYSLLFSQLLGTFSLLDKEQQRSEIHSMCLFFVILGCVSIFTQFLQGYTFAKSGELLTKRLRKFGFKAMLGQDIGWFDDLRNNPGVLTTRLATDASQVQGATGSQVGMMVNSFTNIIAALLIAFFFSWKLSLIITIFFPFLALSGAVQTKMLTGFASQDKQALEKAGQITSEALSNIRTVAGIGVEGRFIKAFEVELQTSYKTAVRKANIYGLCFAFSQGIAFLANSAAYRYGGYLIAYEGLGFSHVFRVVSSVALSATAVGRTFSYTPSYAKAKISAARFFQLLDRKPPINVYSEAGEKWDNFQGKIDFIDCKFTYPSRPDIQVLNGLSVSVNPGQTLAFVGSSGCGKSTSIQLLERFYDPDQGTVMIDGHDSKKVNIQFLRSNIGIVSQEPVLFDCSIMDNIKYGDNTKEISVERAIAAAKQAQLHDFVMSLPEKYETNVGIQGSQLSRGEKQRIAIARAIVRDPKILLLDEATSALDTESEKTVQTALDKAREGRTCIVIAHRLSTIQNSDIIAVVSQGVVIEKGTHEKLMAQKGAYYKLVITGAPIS
# [2] = target: Bile salt export pump (Homo sapiens, UniProt O95342)
# Chain of Bile salt export pump (Homo sapiens, UniProt O95342) (O95342 whole entry): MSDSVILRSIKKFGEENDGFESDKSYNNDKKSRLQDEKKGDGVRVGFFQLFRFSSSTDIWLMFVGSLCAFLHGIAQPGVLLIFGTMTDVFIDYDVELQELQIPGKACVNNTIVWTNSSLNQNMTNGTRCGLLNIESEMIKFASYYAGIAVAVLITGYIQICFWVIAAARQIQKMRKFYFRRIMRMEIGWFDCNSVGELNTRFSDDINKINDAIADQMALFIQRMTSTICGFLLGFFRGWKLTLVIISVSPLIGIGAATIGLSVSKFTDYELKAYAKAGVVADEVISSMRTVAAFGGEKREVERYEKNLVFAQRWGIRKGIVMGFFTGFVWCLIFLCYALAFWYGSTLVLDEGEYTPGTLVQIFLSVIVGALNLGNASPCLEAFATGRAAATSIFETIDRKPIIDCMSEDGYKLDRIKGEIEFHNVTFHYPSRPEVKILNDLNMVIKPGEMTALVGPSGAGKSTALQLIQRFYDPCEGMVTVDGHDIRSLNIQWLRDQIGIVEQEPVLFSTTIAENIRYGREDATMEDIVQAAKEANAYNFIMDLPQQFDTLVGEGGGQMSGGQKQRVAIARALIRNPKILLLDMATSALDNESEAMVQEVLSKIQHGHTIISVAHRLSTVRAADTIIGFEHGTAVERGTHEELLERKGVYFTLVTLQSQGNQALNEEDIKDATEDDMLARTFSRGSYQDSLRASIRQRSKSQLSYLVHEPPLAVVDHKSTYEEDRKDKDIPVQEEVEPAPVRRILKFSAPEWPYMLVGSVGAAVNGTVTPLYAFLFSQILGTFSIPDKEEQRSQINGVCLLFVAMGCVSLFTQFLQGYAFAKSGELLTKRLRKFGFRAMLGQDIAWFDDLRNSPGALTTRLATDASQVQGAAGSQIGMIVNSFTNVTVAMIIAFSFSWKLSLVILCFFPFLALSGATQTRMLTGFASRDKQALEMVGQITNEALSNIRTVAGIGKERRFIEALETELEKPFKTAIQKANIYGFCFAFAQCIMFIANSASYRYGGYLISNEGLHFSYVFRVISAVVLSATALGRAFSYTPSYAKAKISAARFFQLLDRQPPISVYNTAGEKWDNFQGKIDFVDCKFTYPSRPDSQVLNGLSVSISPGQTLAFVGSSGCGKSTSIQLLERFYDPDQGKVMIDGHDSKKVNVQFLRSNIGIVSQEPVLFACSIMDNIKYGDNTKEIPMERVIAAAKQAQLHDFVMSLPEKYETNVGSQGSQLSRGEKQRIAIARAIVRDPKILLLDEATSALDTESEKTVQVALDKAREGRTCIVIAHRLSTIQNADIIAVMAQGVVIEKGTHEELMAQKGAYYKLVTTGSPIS
SMILES,Ki [1],Ki [2]
CC(C)c1nc(N(C)S(C)(=O)=O)nc(-c2ccc(F)cc2)c1/C=C/[C@@H](O)C[C@@H](O)CC(=O)O,> 10 µM,> 10 µM
CC(C)c1c(C(=O)Nc2ccccc2)c(-c2ccccc2)c(-c2ccc(F)cc2)n1CC[C@@H]1C[C@@H](O)CC(=O)O1,> 10 µM,> 10 µM
"CCC(C)(C)C(=O)O[C@H]1C[C@@H](C)C=C2C=C[C@H](C)[C@H](CC[C@@H]3C[C@@H](O)CC(=O)O3)[C@H]21 [2,2-dimethylbutyric acid, 8-ester with (4R,6R)-6-(2-((1S,2S,6R,8S,8aR)-1,2,6,7,8,8a-hexahydro-8-hydroxy-2,6-dimethyl-1-naphthyl)ethyl)tetrahydro-4-hydroxy-2H-pyran-2-one]",> 10 µM,–
"CC[C@H](C)C(=O)O[C@H]1C[C@H](O)C=C2C=C[C@H](C)[C@H](CC[C@@H](O)C[C@@H](O)CC(=O)O)[C@H]21 [(3R,5R)-7-[(1S,2S,6S,8S,8aR)-6-hydroxy-2-methyl-8-{[(2S)-2-methylbutanoyl]oxy}-1,2,6,7,8,8a-hexahydronaphthalen-1-yl]-3,5-dihydroxyheptanoic acid]",> 10 µM,> 10 µM
"COCc1c(C(C)C)nc(C(C)C)c(/C=C/[C@@H](O)C[C@@H](O)CC(=O)O)c1-c1ccc(F)cc1 [(3R,5S,6E)-7-[4-(4-fluorophenyl)-5-(methoxymethyl)-2,6-bis(propan-2-yl)pyridin-3-yl]-3,5-dihydroxyhept-6-enoic acid]",> 10 µM,–
CC(C)n1c(/C=C/[C@@H](O)C[C@@H](O)CC(=O)O)c(-c2ccc(F)cc2)c2ccccc21 [CAS_93957-54-1],> 10 µM,–
O=C(O)C[C@H](O)C[C@H](O)/C=C/c1c(C2CC2)nc2ccccc2c1-c1ccc(F)cc1 [CAS_147511-69-1],> 10 µM,> 10 µM
CC(C)c1c(C(=O)Nc2ccccc2)c(-c2ccccc2)c(-c2ccc(F)cc2)n1CC[C@@H](O)C[C@@H](O)CC(=O)O [CI 981],7.57 µM,–
CCC(C)(C)C(=O)O[C@H]1C[C@@H](C)C=C2C=C[C@H](C)[C@H](CC[C@@H](O)C[C@@H](O)CC(=O)O)[C@H]21 [Simvastatin acid],> 10 µM,> 10 µM
